26 compounds from US8377948B2, “Antitumor agents and methods of their use” (The Ohio State University Research Foundation, priority 2004, dated 2013) can be followed below.

Structures are written as SMILES. Some results are limits rather than exact numbers.

The test system of the first experiment is PC-3 cells. Put plainly: MTT cell viability assay, PC-3 cells in 10% FBS medium. The format is cell-based, human. To be noted: Homo sapiens, PC-3, 48 h, RPMI 1640 with 10% FBS, means ± S.D. (n = 6). How it is done: PC-3 (p53−/−) human androgen-nonresponsive prostate cancer cells were purchased from the American Type Tissue Collection (Manassas, Va.). Cells were cultured in RPMI 1640 medium (Gibco, Grand Island, N.Y.) supplemented with 10% fetal bovine serum (FBS; Gibco) at 37° C. in a humidified incubator containing 5% CO2.
Effect of the test agent on cell viability was assessed by the MTT {[3-(4,5-dimethylthiazol-2-yl)-2,5-diphenyl-2H-tetrazolium bromide]} assay in 96-well, flat-bottomed plates, in which 8,000 PC-3 or DU-145 cells/well were seeded. Cells were exposed to the test agent at the indicated concentrations, in six replicates, in 10% FBS-supplemented-RPMI-1640 medium at 37° C. in 5% CO2 for 48 hr. The medium was removed and replaced by 150 μL of 0.5 mg/mL of MTT in RPMI-1640 medium, and cells were incubated in the CO2 incubator at 37° C. for 2 h. Supernatants were removed from the wells, and the reduced MTT dye was solubilized with 200 μL/well DMSO. Absorbance was determined on a plate reader at 570 nm.
All compounds were evaluated for their ability to induce apoptotic death in human androgen-independent PC-3 prostate cancer in RPMI 1640 medium containing 10% fetal bovine serum (FBS). For representative compounds tested in DU-145 and LNCaP prostate cancer cells, the IC50 values for inhibiting cell proliferation were similar in these three cell lines irrespective of differences in androgen sensitivity, PTEN mutation, the functional status of p53 and Rb, and other biomarkers.
Turning to `COc1cc2nc(N3CCN(C(=O)c4ccc(Cl)cc4)CC3)nc(N)c2cc1OC` [Compound 1, [4-(4-Amino-6,7-dimethoxy-quinazolin-2-yl)-piperazin-1-yl]-(4-chloro-phenyl)-methanone], the IC50 is 60 ± 8 µM.
`COc1cc2nc(N3CCN(C(=O)c4ccc(C#N)cc4)CC3)nc(N)c2cc1OC` [Compound 2, 4-[4-(4-Amino-6,7-dimethoxy-quinazolin-2-yl)-piperazine-1-carbonyl]-benzonitrile] displayed an IC50 of 68 ± 6 µM.
Compound `COc1cc2nc(N3CCN(C(=O)OCc4ccccc4)CC3)nc(N)c2cc1OC` [Compound 3, 4-(4-Amino-6,7-dimethoxy-quinazolin-2-yl)-piperazine-1-carboxylic acid benzyl ester] had an IC50 of 63 ± 6 µM.
The same measure, in the same setting: the same measure for `COc1cc2nc(N3CCN(C(=O)c4cccc(C#N)c4)CC3)nc(N)c2cc1OC` [Compound 4, 3-[4-(4-Amino-6,7-dimethoxy-quinazolin-2-yl)-piperazine-1-carbonyl]-benzo-nitrile]: 82 ± 5 µM; for `COc1cc2nc(N3CCN(C(=O)c4ccc([N+](=O)[O-])cc4)CC3)nc(N)c2cc1OC` [Compound 5, [4-(4-Amino-6,7-dimethoxy-quinazolin-2-yl)-piperazin-1-yl]-(4-nitro-phenyl)-methanone]: 75 ± 11 µM; for `COc1ccc(C(=O)N2CCN(c3nc(N)c4cc(OC)c(OC)cc4n3)CC2)cc1OC` [Compound 6, [4-(4-Amino-6,7-dimethoxy-quinazolin-2-yl)-piperazin-1-yl]-(3,4-dimethoxy-phenyl)-methanone]: 71 ± 8 µM.
In turn, `COc1cc2nc(N3CCN(C(=O)c4cccc5ccccc45)CC3)nc(N)c2cc1OC` [Compound 7, [4-(4-Amino-6,7-dimethoxy-quinazolin-2-yl)-piperazin-1-yl]-naphthalen-1-yl-methanone] displayed an IC50 of 59 ± 4 µM.
On the same count and under the same terms, the same measure for `COc1cc2nc(N3CCN(C(=O)c4ccc(N)cc4)CC3)nc(N)c2cc1OC` [Compound 8, [4-(4-Amino-6,7-dimethoxy-quinazolin-2-yl)-piperazin-1-yl]-(4-amino-phenyl)-methanone]: over 100 µM.
Still for that read-out and setting: the same measure for `COc1cc2nc(N3CCN(C(=O)c4ccc(C(C)(C)C)cc4)CC3)nc(N)c2cc1OC` [Compound 9, [4-(4-Amino-6,7-dimethoxy-quinazolin-2-yl)-piperazin-1-yl]-(4-tert-butyl-phenyl)-methanone]: 47 ± 6 µM.
`COc1cc2nc(N3CCN(C(=O)c4ccc(C(F)(F)F)cc4)CC3)nc(N)c2cc1OC` [Compound 10, [4-(4-Amino-6,7-dimethoxy-quinazolin-2-yl)-piperazin-1-yl]-(4-trifluoromethyl-phenyl)-methanone]: the IC50 was over 100 µM.
As for `COc1cc2nc(N3CCN(S(=O)(=O)c4ccc(Cl)cc4)CC3)nc(N)c2cc1OC` [Compound 11, 2-[4-(4-Chloro-benzonesulfonyl)-piperazin-1-yl]-6,7-dimethoxy-quinazolin-4-yl-amine], the midpoint of inhibition, the IC50, lay at 23 ± 3 µM.
Turning to `COc1cc2nc(N3CCN(S(=O)(=O)c4ccc(Br)cc4)CC3)nc(N)c2cc1OC` [Compound 12, 2-[4-(4-Bromo-benzenesulfonyl)-piperazin-1-yl]-6,7-dimethoxy-quinazolin-4-yl-amine], the IC50 was 20 ± 2 µM.
The same measure, in the same setting: the same measure for `COc1cc2nc(N3CCN(S(=O)(=O)c4ccc(I)cc4)CC3)nc(N)c2cc1OC` [Compound 13, 2-[4-(4-Iodo-benzenesulfonyl)-piperazin-1-yl]-6,7-dimethoxy-quinazolin-4-yl-amine]: 15 ± 2 µM.
The compound `COc1cc2nc(N3CCN(S(=O)(=O)c4ccc(Cl)s4)CC3)nc(N)c2cc1OC` [Compound 14, 2-[4-(5-Chloro-thiophene-2-sulfonyl)-piperazin-1-yl]-6,7-dimethoxy-quinazolin-4-ylamine] returned an IC50 of 25 ± 3 µM.
For the compound `COc1cc2nc(N3CCN(S(=O)(=O)c4ccccc4[N+](=O)[O-])CC3)nc(N)c2cc1OC` [Compound 15, 6,7-Dimethoxy-2-[4-(2-nitro-benzenesulfonyl)-piperazin-1-yl]-quinazolin-4-yl-amine], the IC50 was found to be 35 ± 4 µM.
Take `COc1cc2nc(N3CCN(S(=O)(=O)c4cccc([N+](=O)[O-])c4)CC3)nc(N)c2cc1OC` [Compound 16, 6,7-Dimethoxy-2-[4-(3-nitro-benzenesulfonyl)-piperazin-1-yl]-quinazolin-4-yl-amine]: half-maximal inhibition (IC50) was put at 32 ± 5 µM.
Turning to `COc1cc2nc(N3CCN(S(=O)(=O)c4ccc([N+](=O)[O-])cc4)CC3)nc(N)c2cc1OC` [Compound 17, 6,7-Dimethoxy-2-[4-(4-nitro-benzenesulfonyl)-piperazin-1-yl]-quinazolin-4-yl-amine], the IC50 amounted to 36 ± 3 µM.
Consider `COc1cc2nc(N3CCN(S(=O)(=O)c4ccc(C)cc4)CC3)nc(N)c2cc1OC` [Compound 18, 6,7-Dimethoxy-2-[4-(toluene-4-sulfonyl)-piperazin-1-yl]-quinazolin-4-ylamine], for which the IC50 worked out at 30 ± 2 µM.
Same read-out and setting: next, `COc1cc2nc(N3CCN(S(=O)(=O)c4ccc(C(F)(F)F)cc4)CC3)nc(N)c2cc1OC` [Compound 19, 6,7-Dimethoxy-2-[4-(4-trifluoromethyl-benzenesulfonyl)-piperazin-1-yl]-quinazolin-4-yl-amine]: 27 ± 3 µM.
`COc1ccc(S(=O)(=O)N2CCN(c3nc(N)c4cc(OC)c(OC)cc4n3)CC2)cc1` [Compound 20, 6,7-Dimethoxy-2-[4-(4-methoxy-benzenesulfonyl)-piperazin-1-yl]-quinazolin-4-yl-amine] registered an IC50 of 39 ± 4 µM.
The compound `COc1cc2nc(N3CCN(S(=O)(=O)c4ccc(OC(F)(F)F)cc4)CC3)nc(N)c2cc1OC` [Compound 21, 6,7-Dimethoxy-2-[4-(4-trifluoromethoxy-benzenesulfonyl)-piperazin-1-yl]-quinazolin-4-yl-amine] came in with an IC50 of 25 ± 2 µM.
`COc1cc2nc(N3CCN(S(=O)(=O)c4ccc(S(C)(=O)=O)cc4)CC3)nc(N)c2cc1OC` [Compound 22, 2-[4-(4-Methanesulfonyl-benzenesulfonyl)-piperazin-1-yl]-6,7-dimethoxy-quinazolin-4-ylamine] registered an IC50 of 17 ± 3 µM.
`COc1cc2nc(N3CCN(S(=O)(=O)c4ccc(C(C)(C)C)cc4)CC3)nc(N)c2cc1OC` [Compound 23, 2-[4-(4-tert-Butyl-benzenesulfonyl)-piperazin-1-yl]-6,7-dimethoxy-quinazolin-4-ylamine]: the IC50 was in the range of 4 to 5 µM.
Still for that read-out and setting: the same measure for `COc1cc2nc(N3CCN(S(=O)(=O)c4cccc(C(=O)O)c4)CC3)nc(N)c2cc1OC` [Compound 24, 3-[4-(4-Amino-6,7-dimethoxy-quinazolin-2-yl)-piperazine-1-sulfonyl]-benzoic acid]: 53 ± 4 µM; for `COc1cc2nc(N3CCN(S(=O)(=O)c4cc(Cl)ccc4Cl)CC3)nc(N)c2cc1OC` [Compound 26, 2-[4-(2,5-Dichloro-benzenesulfonyl)-piperazin-1-yl]-6,7-dimethoxy-quinazolin-4-ylamine]: 60 ± 7 µM; for `COc1cc2nc(N3CCN(S(=O)(=O)c4ccc(N)cc4N)CC3)nc(N)c2cc1OC` [Compound 27, 4-[4-(4-Amino-6,7-dimethoxy-quinazolin-2-yl)-piperazine-1-sulfonyl]-benzene-1,3-diamine]: 67 ± 5 µM.

The experiment is the same for the next values; noted with them: RPMI 1640 with 10% FBS, 48 h, means ± S.D. (n = 6).
In the case of `COc1cc2nc(N3CCN(S(=O)(=O)c4ccc(C(C)(C)C)cc4)CC3)nc(N)c2cc1OC` [Compound 23, 2-[4-(4-tert-Butyl-benzenesulfonyl)-piperazin-1-yl]-6,7-dimethoxy-quinazolin-4-ylamine], the IC50 amounted to 4.1 ± 0.7 µM.
